Patent US8557574B2, “Fungal growth inhibitor” (Seikagaku Corporation, priority 2006, dated 2013)

How the values were obtained:
Candida albicans [1] = experiment: Analysis of the activity of inhibiting Candida growth of HA (absorbance at 660 nm); format: cell-based; conditions: Candida albicans 5×10^5 cells/mL, 9 hours with HA of various concentration (0.1, 1.0 mg/mL) and weight average molecular weight; FIG. 3
Description: Co-culture of HA and Candida was carried out in 100 μl of a medium using a 96 well plate (manufactured by Iwaki). Candida albicans was prepared by growing it at 37° C. overnight in the GP broth under an aerobic condition. The Candida albicans culture mixture was incubated at 37° C. for 9 hours under a condition of 10% CO2 in the presence of various final concentrations (0.1 mg/mL, 1.0 mg/mL) of HA having various sizes (tetradecasaccharide, weight average molecular weight 60 kDa, 250 kDa, 800 kDa or 2,000 kDa).
(§1) After completion of the incubation, in order to evaluate the degree of growth of each Candida species, the culture medium was thoroughly mixed, and its absorbance at a wavelength of 660 nm was measured. Hereinafter, absorbance of the sample incubated in the presence of HA is referred to as “ODtest”. As a control, the absorbance at a wavelength of 660 nm was measured using a sample of each Candida species incubated in the same manner in the absence of HA. Hereinafter, absorbance of this control is referred to as “ODcontrol”.
(§2) Growth inhibition ratio (%) was calculated from the value of “ODtest” and the value of “ODcontrol” of its corresponding Candida species based on the following formula. Growth inhibition ratio (%)=(1−ODtest/ODcontrol)×100 (1-5-2) Quantitative Plate Count […]

Candida albicans [2] = experiment: Living body staining of Candida species (FDA/PI); format: cell-based; conditions: conclusion from living body staining
Description: Co-culturing of an epithelial cell with a Candida species (effector:target ratio (to be referred to as “E:T” hereinafter) is 20:1, 40:1 or 80:1) was carried out in 100 μl of a medium using a 96 well plate (manufactured by Costar). After 9 hours of incubation, the co-culture mixture was recovered and washed twice. Fluorescein diacetate (which stain living cells, to be referred to as “FDA” hereinafter) (50 μg/mL) and propidium iodide (which stain dead cells, to be referred to as “PI” hereinafter)(1 μg/mL) (both manufactured by Sigma) (Adv. Biochem. Eng. Biotechnol., 62, p. 33-73 (1998), Anal. Chem., 37, p. 1219-1221 (1965)) were simultaneously added to the pellet of cells and incubated at room temperature for 20 minutes in the dark. In this connection, optimum concentrations of the respective pigments were determined by a preliminary test.
After the incubation, the co-culture mixture was washed with PBS and then with PBS containing 20% FCS, respectively, and then again washed with PBS. The pellet was resuspended in 100 μl, of PBS, and a 5 μL thereof was put on a slide glass and observed under a fluorescent phase contrast microscope (DP-70 manufactured by Olympus Corporation). Growth inhibition of Candida species by the epithelial cell was confirmed by 9 hours of a growth inhibition assay. […]

[3] = test system: Candida glabrata ATCC 2001, Candida krusei ATCC 6258 and Candida tropicalis ATCC 4563; experiment: Activity of inhibiting growth for various Candida species by HA (absorbance at 660 nm); format: cell-based; conditions: other Candida species 5×10^5 cells/mL, 9 hours with HA of 2,000 kDa; FIG. 5
Description: Additionally, other Candida species (Candida glabrata ATCC 2001, Candida krusei ATCC 6258 and Candida tropicalis ATCC 4563) were prepared by allowing them to grow at 37° C. overnight in the GP broth under an aerobic condition. Culture mixtures of these Candida species (cell density: 5×10^5) were incubated at 37° C. for 9 hours under a condition of 10% CO2 together with various final concentrations (0.1 mg/mL, 1.0 mg/mL) of HA having a weight average molecular weight of 2,000 kDa.
as §1, §2

COS-7 = experiment: MTT assay of hyaluronidase-treated cells; format: cell-based, Cercopithecus aetiopus; conditions: COS-7 cells, hyaluronidase 10, 20 or 100 units/mL; data not shown
Description: (§3) Assay of living cells was carried out in the same manner as in the reported reference (Infect. Immun., 69, p. 5925-5930 (2001)).
(§4) In briefly describing, firstly, the COS-7 and KB cells were plated on a 96 well plate at a density of 5×10^5 cells/mL. Hyaluronidase (manufactured by Sigma) haying a respective concentration of 10, 20 or 100 units/mL was added to it, and Candida albicans was cultured for 20 hours. MTT solution (20 μg/mL) was added to each well at the final stage of the culturing, and the contents of the plate were incubated for 4 hours. By adding 100 μL of acidic isopropanol (isopropanol containing 0.04M HCl) to this, the red formazan was eluted and thoroughly mixed. Formazan concentration in the solution of each well was measured by a plate reader (manufactured by Dynex) using 570 nm as the testing wavelength and 620 nm as the reference wave length, respectively.

Candida albicans [4] = experiment: Candida growth inhibition by cells after removal of cell surface HA with hyaluronidase (quantitative plate count); format: cell-based; conditions: various concentrations of hyaluronidase, E:T 80:1, FIG. 2
Description: The cells were treated using hyaluronidase (manufactured by Sigma) (50 units/10^6 cells) at 37° C. for 2 hours (J. Oral Sci., 45, p. 85-91 (2003)). The cells after the treatment were washed twice with phosphate buffered saline (pH 7.2, to be referred to as “PBS” hereinafter) and re-suspended in DMEM.
In order to monitor growth inhibition of Candida albicans, a quantitative plate count method was used (J. Infect. Dis., 182, p. 1479-1485 (2000), Infect. Immun., 69, p. 7091-7099 (2001), Med. Mycol., 37, p. 251-259 (1999)). In briefly describing, a co-culture mixture of the same effector and target was incubated at 37° C. for 9 hours under a condition of 5% CO2. […] It was incubated at 30° C. for 48 hours, and the colony forming unit (to be referred to as “CFU” hereinafter) was counted. Hereinafter, counted value of CFU of the sample incubated in the presence of HA is referred to as “test CFU”.
As a control, respective Candida species was incubated in the absence of HA, and this was subjected to the plating in the same manner. Hereinafter, counted value of CFU on the sample is referred to as “control CFU”.
Growth inhibition ratio (%) was calculated from the value of “test CFU” and the value of “control CFU” of its corresponding Candida species based on the following formula. […]

KB cells = experiment: MTT assay of hyaluronidase-treated cells; format: cell-based, human; conditions: hyaluronidase 10, 20 or 100 units/mL, data not shown
Description: as §3, §4

## hyaluronic acid [HA]
Candida albicans [1]
  activity of inhibiting the Candida albicans growth (growth inhibition ratio): has activity of inhibiting the Candida albicans growth
Candida albicans [2]
  nature of the activity of inhibiting Candida growth (bactericidal or bacteriostatic): not bactericidal but rather bacteriostatic
[3]
  activity of inhibiting growth for other Candida species (growth inhibition ratio): exerts its activity of inhibiting growth

## hyaluronidase
COS-7
  influence upon the life or death of the cells (MTT): does not exert influence upon the life or death of the cells
Candida albicans [4]
  activity of inhibiting Candida growth of the COS-7 cell after hyaluronidase treatment: reduced
KB cells
  influence upon the life or death of the cells (MTT): does not exert influence upon the life or death of the cells
